{"source": "patent US20250249003A1", "about": "“COMBINATIONS OF KRAS G12D INHIBITORS WITH IRINOTECAN AND RELATED METHODS OF TREATMENT” (MIRATI THERAPEUTICS, INC., priority 2021, published 2025)", "key": {"Panc 02.03 cells": {"test_system": "Panc 02.03 cells", "test": "Panc 02.03 pancreatic cancer xenograft, average tumor volumes in nude/nude mice", "assay_type": "in vivo", "details": "single agent, 30 mg/kg i.p. BID 2x/week; day 22", "protocol": "Immunocompromised nude/nude mice are inoculated in the right hind flank with cells harboring a KRas G12D mutation. […] The first group is administered vehicle only. […] Tumor volumes are measured using a caliper every two-three days and tumor volumes are calculated by the formula: […]."}, "[1]": {"details": "cited from earlier work"}, "[2]": {"target": "butyrylcholinesterase (hBChE) (Homo sapiens, UniProt P06276)", "sequence (P06276 29-602)": "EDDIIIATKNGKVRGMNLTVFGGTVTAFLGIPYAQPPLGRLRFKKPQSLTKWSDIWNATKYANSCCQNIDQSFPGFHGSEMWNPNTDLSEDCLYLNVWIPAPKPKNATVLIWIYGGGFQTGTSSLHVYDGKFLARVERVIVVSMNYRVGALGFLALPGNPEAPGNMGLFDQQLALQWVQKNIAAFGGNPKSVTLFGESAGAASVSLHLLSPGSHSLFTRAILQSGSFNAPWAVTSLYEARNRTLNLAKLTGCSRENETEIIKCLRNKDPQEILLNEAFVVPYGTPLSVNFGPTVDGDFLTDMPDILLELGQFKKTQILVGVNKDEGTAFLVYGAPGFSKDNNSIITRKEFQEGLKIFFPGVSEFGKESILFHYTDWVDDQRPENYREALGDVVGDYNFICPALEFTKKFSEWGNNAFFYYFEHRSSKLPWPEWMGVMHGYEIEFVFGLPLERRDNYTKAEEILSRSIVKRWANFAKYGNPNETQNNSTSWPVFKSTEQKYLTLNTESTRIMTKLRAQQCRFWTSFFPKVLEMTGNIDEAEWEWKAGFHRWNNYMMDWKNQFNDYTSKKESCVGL", "details": "higher activity than CES; cited from earlier work"}, "CES2": {"target": "T1, CES2 (Homo sapiens, UniProt O00748)", "T1 sequence (O00748 27-559)": "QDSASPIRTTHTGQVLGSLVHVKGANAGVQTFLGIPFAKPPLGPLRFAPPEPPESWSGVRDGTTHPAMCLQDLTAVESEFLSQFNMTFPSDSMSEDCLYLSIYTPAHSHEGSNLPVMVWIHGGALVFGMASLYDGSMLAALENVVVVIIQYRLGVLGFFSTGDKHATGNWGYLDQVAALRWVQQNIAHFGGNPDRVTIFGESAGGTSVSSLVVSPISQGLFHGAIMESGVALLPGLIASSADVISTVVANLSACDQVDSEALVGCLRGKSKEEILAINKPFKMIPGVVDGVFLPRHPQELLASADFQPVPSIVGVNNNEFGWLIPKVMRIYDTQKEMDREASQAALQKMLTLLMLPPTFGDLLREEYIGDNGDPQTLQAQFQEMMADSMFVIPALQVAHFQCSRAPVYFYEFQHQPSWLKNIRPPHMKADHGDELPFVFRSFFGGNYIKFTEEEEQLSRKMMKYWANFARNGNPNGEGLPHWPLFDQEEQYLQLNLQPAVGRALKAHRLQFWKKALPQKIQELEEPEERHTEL", "details": "higher affinity than CES1; cited from earlier work"}}, "note": "Counter-ions that a name gives are not always drawn.", "data": [{"smiles": "C#Cc1c(F)ccc2cc(O)cc(-c3ncc4c(N5C[C@H]6CC[C@@H](C5)N6)nc(OC[C@@]56CCCN5C[C@H](F)C6)nc4c3F)c12", "note": "[MRTX1133, 4-(4-((1R,5S)-3,8-diazabicyclo[3.2.1]octan-3-yl)-8-fluoro-2-(((2R,7aS)-2-fluorohexahydro-1Hpyrrolizin-7a-yl)methoxy)pyrido[4,3-d]pyrimidin-7-yl)-5-ethynyl-6-fluoronaphthalen-2-ol]", "values": [{"measurement": "tumor growth", "setting": "Panc 02.03 cells", "result": 72, "unit": "%"}]}, {"smiles": "CCc1c2c(nc3ccc(O)cc13)-c1cc3c(c(=O)n1C2)COC(=O)[C@]3(O)CC", "note": "[SN-38, ethyl-10-hydroxy-camptothecin]", "values": [{"measurement": "time to peak plasma concentration", "setting": "[1]; after infusion", "result": "≤ 2", "unit": "h"}, {"measurement": "distribution half-life", "setting": "[1]; in vivo", "result": "approximately 8 min"}]}, {"smiles": "CCc1c2c(nc3ccc(OC(=O)N4CCC(N5CCCCC5)CC4)cc13)-c1cc3c(c(=O)n1C2)COC(=O)[C@]3(O)CC", "note": "[Irinotecan, (S)-4,11-diethyl-3,4,12,14-tetrahydro-4-hydroxy-3,14-dioxo-1H-pyrano[3′,4′:6,7]indolizino[1,2-β]quinolin-9-yl ester[1,4′-bipiperidine]-1′-carboxylic acid trihydrate monohydrochloride]", "values": [{"measurement": "activity for irinotecan, butyrylcholinesterase relative to CES", "setting": "[2]", "result": 6, "unit": "fold"}, {"measurement": "fraction of pro-drug hydrolyzed into active metabolite SN-38", "setting": "[1]; in vivo", "result": "2-5%"}, {"measurement": "affinity for irinotecan, CES2 relative to CES1", "setting": "CES2", "result": 12.5, "unit": "fold"}]}]}
